Laboratory results taken from publication PMC8863381 (Journal of Enzyme Inhibition and Medicinal Chemistry, 2022).
Like-named read-outs stand apart in the source and are kept apart here.

Columns and labels:
hCA IX = hCA IX (Homo sapiens, UniProt Q16790); assay: biochemical; conditions: for Selectivity ratio I/IX: KI hCA I / KI hCA IX; for Selectivity ratio II/IX: KI hCA II / KI hCA IX
hCA XII = hCA XII (Homo sapiens, UniProt O43570); assay: stopped flow CO2 hydrase assay, hCA XII; type: biochemical; conditions: for Selectivity ratio I/XII: KI hCA I / KI hCA XII; for Selectivity ratio II/XII: KI hCA II / KI hCA XII
hCA II = hCA II (Homo sapiens, UniProt P00918); assay: stopped flow CO2 hydrase assay, hCA II; type: biochemical
hCA I = hCA I (Homo sapiens, UniProt P00915); assay: stopped flow CO2 hydrase assay, hCA I; type: biochemical
[1] = tested on: MCF-7 breast cancer cell line; assay: SRB cell viability assay, MCF-7; type: cell-based, human; conditions: for IC50: Homo sapiens, MCF7, 72 h, read-out: IC50 MCF-7; for Selectivity index MCF-7: normal HSF versus MCF-7
A549 lung cancer cells = assay: SRB cell viability assay, A549; type: cell-based, human; conditions: for IC50: Homo sapiens, A549, 72 h, read-out: IC50 A549; for Selectivity index A549: normal HSF versus A549
[2] = tested on: normal human skin fibroblast cell line HSF; assay: SRB cell viability assay, HSF normal cells; type: cell-based; conditions: 72 h, read-out: IC50 HSF
[3] = log of KI in nM, compounds of this paper
[4] = read-out: KI hCA IX, 15 min preincubation, mean from 3 different assays
[5] = read-out: KI hCA XII, 15 min preincubation, mean from 3 different assays
[6] = read-out: KI hCA II, 15 min preincubation, mean from 3 different assays
[7] = read-out: KI hCA I, 15 min preincubation, mean from 3 different assays
[8] = KI hCA IX, 15 min preincubation, mean from 3 different assays
[9] = log KI hCA IX (experimental), log of KI in nM, compounds of this paper
[10] = KI hCA XII, 15 min preincubation, mean from 3 different assays
[11] = Log KI hCA XII (experimental), log of KI in nM, compounds of this paper

hCA XII, sequence (O43570 25-354): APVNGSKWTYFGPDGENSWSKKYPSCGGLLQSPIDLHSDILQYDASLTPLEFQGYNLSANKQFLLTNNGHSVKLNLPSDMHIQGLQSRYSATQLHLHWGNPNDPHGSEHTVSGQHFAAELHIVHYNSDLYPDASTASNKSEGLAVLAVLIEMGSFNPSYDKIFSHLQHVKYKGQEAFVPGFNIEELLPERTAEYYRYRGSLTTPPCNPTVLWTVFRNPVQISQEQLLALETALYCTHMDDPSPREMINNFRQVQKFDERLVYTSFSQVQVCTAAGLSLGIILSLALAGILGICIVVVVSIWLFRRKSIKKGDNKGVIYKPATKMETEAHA
hCA I, sequence (P00915 whole entry): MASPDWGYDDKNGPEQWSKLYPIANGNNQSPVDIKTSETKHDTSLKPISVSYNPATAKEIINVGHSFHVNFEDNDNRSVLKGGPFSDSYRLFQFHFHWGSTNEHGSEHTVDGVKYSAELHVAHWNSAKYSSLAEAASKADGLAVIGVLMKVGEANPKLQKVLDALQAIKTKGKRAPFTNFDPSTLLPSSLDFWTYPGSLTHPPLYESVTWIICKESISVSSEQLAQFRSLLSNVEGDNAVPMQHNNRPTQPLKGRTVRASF

Compound	Selectivity ratio I/IX (hCA IX)	Selectivity ratio II/IX (hCA IX)	Selectivity ratio I/XII (hCA XII)	Selectivity ratio II/XII (hCA XII)	Ki (hCA IX; [8]) [nM]	Ki (hCA IX; [9]) [nM]	Ki (hCA XII; [10]) [nM]	Ki (hCA XII; [11]) [nM]	IC50 [1] [nM]	Ki (hCA II) [nM]	IC50 (A549 lung cancer cells) [nM]	IC50 [2] [nM]	Ki (hCA I) [nM]	other results
2–(2-Oxo-3–(2-(2–(4-sulfamoylphenylamino)acetyl)hydrazono)indolin-1-yl)-N-m-tolylacetamide [4d]	14.824	0.797	1.412	0.076										log KI hCA IX (experimental) (hCA IX; [3]): 2.759; Ki (hCA IX; [4]): 574 nM; Log KI hCA XII (experimental) (hCA XII; [3]): 3.78; Ki (hCA XII; [5]): 6020 nM; Ki (hCA II; [6]): 458 nM; Ki (hCA I; [7]): 8510 nM
NS(=O)(=O)c1ccc(NC(=O)CN2C(=O)C(=O)c3ccccc32)cc1 [2h, 2–(2,3-Dioxoindolin-1-yl)-N-(4-sulfamoylphenyl)acetamide]	0.673	0.087	5.701	0.742	67	67	7.91	8	> 100000	5.87	> 100000	> 100000	45.1	cytotoxic activity against MCF-7 [1]: no cytotoxic activity; cytotoxic activity against A549 (A549 lung cancer cells): no cytotoxic activity
NS(=O)(=O)c1ccc(NN=C2C(=O)N(CC(=O)Nc3ccccc3)c3ccccc32)cc1 [3a, 2–(2-Oxo-3–(2-(4-sulfamoylphenyl)hydrazono)indolin-1-yl)-N-phenylacetamide]	18.384	1.203	1.088	0.071	216	216	3650	3650		260			3970	
NS(=O)(=O)c1ccc(NN=C2C(=O)N(CC(=O)Nc3ccc(Cl)cc3)c3ccccc32)cc1 [3b, N-(4-Chlorophenyl)-2–(2-oxo-3–(2-(4-sulfamoylphenyl)hydrazono)indolin-1-yl)acetamide]	7.252	3.674	1.881	0.953	123	123	474	474		452			892	
NS(=O)(=O)c1ccc(NN=C2C(=O)N(CC(=O)Nc3ccc(Br)cc3)c3ccccc32)cc1 [3c, N-(4-Bromophenyl)-2–(2-oxo-3–(2-(4-sulfamoylphenyl)hydrazono)indolin-1-yl)acetamide]	13.392	0.991	1.245	0.092	56.9	57	612	612	> 100000	56.4	5900	> 100000	762	Selectivity index A549 (A549 lung cancer cells): > 16.94
Cc1ccc(NC(=O)CN2C(=O)C(=NNc3ccc(S(N)(=O)=O)cc3)c3ccccc32)cc1 [3d, 2–(2-Oxo-3–(2-(4-sulfamoylphenyl)hydrazono)indolin-1-yl)-N-p-tolylacetamide]	7.672	0.934	0.923	0.112	85.5	86.1	710	710	869	79.9	5120	1460	656	Selectivity index MCF-7 [1]: 1.68; Selectivity index A549 (A549 lung cancer cells): 0.28
NS(=O)(=O)c1ccc(NCC(=O)NN=C2C(=O)N(CC(=O)Nc3ccccc3)c3ccccc32)cc1 [4a, 2–(2-Oxo-3–(2-(2–(4-sulfamoylphenylamino)acetyl)hydrazono)indolin-1-yl)-N-phenylacetamide]	5.741	0.995	0.683	0.118	808	807	6790			804			4640	
NS(=O)(=O)c1ccc(NCC(=O)NN=C2C(=O)N(CC(=O)Nc3ccc(Cl)cc3)c3ccccc32)cc1 [4b, N-(4-Chlorophenyl)-2–(2-oxo-3–(2-(2–(4-sulfamoylphenylamino)acetyl)hydrazono)indolin-1-yl)acetamide]	2.149	1.169	1.670	0.909	3920	3930	5050	5050		4590			8430	
NS(=O)(=O)c1ccc(NCC(=O)NN=C2C(=O)N(CC(=O)Nc3ccccc3Cl)c3ccccc32)cc1 [4f, N-(2-Chlorophenyl)-2–(2-oxo-3–(2-(2–(4-sulfamoylphenylamino)acetyl)hydrazono)indolin-1-yl)acetamide]	0.819	0.554	5.823	3.937	5360	5360	754	753		2970			4390	
NS(=O)(=O)c1ccc(NCC(=O)NN=C2C(=O)N(CC(=O)Nc3ccccc3Br)c3ccccc32)cc1 [4g, N-(2-Bromophenyl)-2–(2-oxo-3–(2-(2–(4-sulfamoylphenylamino)acetyl)hydrazono)indolin-1-yl)acetamide]	0.829	0.272	7.221	2.373	7340	7330	843	843		2000			6090	
COc1cccc2c1C(=O)c1c(O)c3c(c(O)c1C2=O)C[C@@](O)(C(=O)CO)C[C@@H]3O[C@H]1C[C@H](N)[C@H](O)[C@H](C)O1 [Doxorubicin, reference compound]									630		190	220		Selectivity index MCF-7 [1]: 0.349; Selectivity index A549 (A549 lung cancer cells): 1.157
N-(3-Bromophenyl)-2–(2-oxo-3–(2-(2–(4-sulfamoylphenylamino)acetyl)hydrazono) indolin-1-yl)acetamide [4c]	3.596	1.119	1.029	0.320										log KI hCA IX (experimental) (hCA IX; [3]): 2.816; Ki (hCA IX; [4]): 654 nM; Log KI hCA XII (experimental) (hCA XII; [3]): 3.359; Ki (hCA XII; [5]): 2280 nM; Ki (hCA II; [6]): 732 nM; Ki (hCA I; [7]): 2350 nM
N-(3-Methoxyphenyl)-2–(2-oxo-3–(2-(2–(4-sulfamoylphenylamino)acetyl) hydrazono)indolin-1-yl)acetamide [4e]	2.957	2.133	6.122	4.416										log KI hCA IX (experimental) (hCA IX; [3]): 3.498; Ki (hCA IX; [4]): 3150 nM; Log KI hCA XII (experimental) (hCA XII; [3]): 3.182; Ki (hCA XII; [5]): 1520 nM; Ki (hCA II; [6]): 6720 nM; Ki (hCA I; [7]): 9320 nM
